Results reported in article PMC7567501 (Journal of Enzyme Inhibition and Medicinal Chemistry, 2019).
Like-named read-outs stand apart in the source and are kept apart here.

Experiments:
[1] = Radical scavenging (anti-oxidant) activity, DPPH method; format: physicochemical; conditions: DPPH in methanol, 30 min, room temperature
Procedure: A selection of the newly synthesised hybrids was tested for their radical scavenging activity (anti-oxidant activity, EC50), based on their interaction with the 2,2-diphenyl-1-picrylhydrazyl (DPPH) free radical, as previously described.
The anti-oxidant capacity or, more precisely, radical scavenging activity based on the electron and proton donation ability, was evaluated by the DPPH method previously described[29]^,[46]. To a 2.5 mL solution of DPPH (0.002%) in methanol, solutions of each compound were added in different volumes to obtain different concentrations in a 3.5 mL final volume. The samples were incubated for 30 min at room temperature. The absorbance was measured at 517 nm against the corresponding blank (methanol). The antioxidant activity was calculated by Eq. (1)^29. (1) %AA = ((ADPPH−Asample)/ADPPH) × 100
The tests were carried out in triplicate. The compound concentration providing 50% of antioxidant activity (EC50) was obtained by plotting the antioxidant activity against the compound concentration.

Aβ1-42 [2] = target: T1, Aβ1-42 (Homo sapiens, UniProt P05067); test: biochemical; conditions: read-out: Aβ aggregation inhibition, Self-Aβ aggr
T1 construct: Amyloid β-peptide (1–42), Aβ1-42, was purchased from GeneCust; purchased GeneCust
T1 sequence (P05067 672-713 limits assumed): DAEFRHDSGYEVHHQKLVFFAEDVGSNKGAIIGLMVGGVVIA
Source text: (§1) The Aβ amyloid plaques are one of the main hallmarks of AD and they result from over production and aggregation of β-amyloid peptide, which can accumulate outside the neurons, by self-mediated or Cu^2+-induced process, interfering with the synaptic impairment, neurotransmission and memory. Therefore, anti-AD drugs have been designed aimed to disrupt and disaggregate the Aβ’s fibrils into monomers, obtaining non-toxic forms of β-secretase’s products. To assess the effect of these new hybrids in the inhibition of amyloid peptide aggregation, a selection of the compounds was in vitro assayed, based on the thioflavin T (ThT) method. Indeed ThT is a histochemical dye able to create ionic or hydrophobic interactions with the peptide β–sheets, the predominant secondary structure of the amyloid fibrils in aqueous solutions[36]. This binding interactions can be monitored by fluorimetry since the presence of ThT-fibrils increases the absorbance and the emission of the ThT dye, and induces red shifts on the absorbance (from 385 to 446 nm) and emission peaks (from 445 to 485 nm)[14]. All the measurements were performed after incubation of the self-mediated and Cu^2+-induced Aβ aggregates in the presence/absence of the herein studied compounds. […]. […] This may be rationalised on the basis of their copper chelating capacity, as previously shown by other metal chelating compounds[14]^,[38]. Furthermore, despite some exceptions (e.g. 20 and 24), the increase in linker length and the chloro TAC substitution induce some small negative effects in the inhibition of Aβ self-aggregation.
(§2) For the study of the β-amyloid (Aβ) aggregation, the ThT fluorescence assay was performed using a Varian Cary Eclipse fluorimeter at the following wavelengths: excitation (446 nm) and emission (485 nm). Amyloid β-peptide (1–42), Aβ1-42, was purchased from GeneCust as a lyophilised powder stored at −20 °C. TEM assays were performed with a Hitachi H8100 transmission electron microscope with a LaB6 filament (200 kV, 10000–20000 × magnification) at MicroLab/IST.
(§3) Among all the methods to measure the aggregation of Aβ1-42, the assay based on Thioflavin T (ThT) is the standard procedure based on the fluorescence of this dye[49]^,[50]. This test is performed with Aβ1-42 peptide previously prepared by dissolving it in 1,1,1,3,3,3–hexafluoro-2-propanol (HFIP), an organic solvent useful to solubilise and monomerize the β–sheet protein aggregates and reserve them in the fridge. Films are re-dissolved in an Eppendorf tube with a fresh solution of a mixture of CH3CN/Na2CO3/NaOH, to have a stable stock solution, and afterwards, added to an optimised fibrillation phosphate buffer. The samples were prepared using MeOH (1 mg/mL) as solvent, followed by incubation in a water bath for 24 h at 37 °C with gentle shaking. After incubation, the samples were added to a 96-well plate (BD Falcon) with 180 µL of 5 µM ThT in 50 mM glycine-NaOH (pH 8.5) buffer. Blank samples were prepared for each concentration in a similar way, devoid of peptide. After 5-min incubation with the dye, the ThT fluorescence was measured at 446 nm (excitation) and 485 nm (emission).

Aβ1-42 [3] = target: T1, Aβ1-42; test: Inhibition of Cu2+-induced Aβ1-42 aggregation, thioflavin T fluorescence; format: biochemical; conditions: Aβ42 aggregation with copper (40 µM); inhibitor 80 µM; ThT fluorescence; read-out: Aβ aggregation inhibition, Cu-ind Aβ aggr
Source text: as §1, §2
as §3, with “The samples were prepared using MeOH (1 mg/mL) as solvent, followed by incubation in a water bath for 24 h at 37 °C with gentle shaking. After incubation, the samples were added to a 96-well plate (BD Falcon) with 180 µL of 5 µM ThT in 50 mM glycine-NaOH (pH 8.5) buffer. Blank samples were prepared for each concentration in a similar way, devoid of peptide.” left out

AChE = target: T2, AChE (Electrophorus electricus, UniProt O42275); test: biochemical; design: species or system Electrophorus electricus (electric eel)
T2 construct: extracted from Electrophorus electricus (electric eel); purchased Sigma-Aldrich; host or cells: Electrophorus electricus (extracted)
T2 sequence (O42275 24-633): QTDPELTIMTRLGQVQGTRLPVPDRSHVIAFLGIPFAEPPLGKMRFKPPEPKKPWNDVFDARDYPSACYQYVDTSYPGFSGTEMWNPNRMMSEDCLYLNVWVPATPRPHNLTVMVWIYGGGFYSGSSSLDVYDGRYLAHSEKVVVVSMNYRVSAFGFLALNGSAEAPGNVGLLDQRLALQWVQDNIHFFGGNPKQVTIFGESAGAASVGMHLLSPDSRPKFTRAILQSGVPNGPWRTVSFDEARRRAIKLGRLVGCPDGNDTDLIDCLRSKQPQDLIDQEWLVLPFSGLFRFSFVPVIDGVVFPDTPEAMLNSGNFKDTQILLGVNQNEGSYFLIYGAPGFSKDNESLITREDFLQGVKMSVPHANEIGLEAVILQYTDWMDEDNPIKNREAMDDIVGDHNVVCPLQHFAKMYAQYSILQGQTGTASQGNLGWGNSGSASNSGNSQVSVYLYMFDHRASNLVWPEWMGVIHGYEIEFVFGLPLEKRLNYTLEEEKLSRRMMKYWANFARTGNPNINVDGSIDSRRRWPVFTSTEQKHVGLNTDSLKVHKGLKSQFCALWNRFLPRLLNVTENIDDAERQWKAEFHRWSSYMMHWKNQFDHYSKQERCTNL
Procedure: The electronic spectra and the AChE inhibition assays were performed in a 1-cm path length quartz cell with a Perkin Elmer Lambda 35 spectrophotometer equipped with a temperature programmer PTP1 + 1 Peltier System (T = 25.0 ± 0.1 °C). The enzyme AChE 500 U, extracted from Electrophorus electricus (electric eel), was purchased from Sigma-Aldrich.
The enzymatic activity of AChE was determined using an adaptation of the Ellman’s method, as described previously[29]^,[32]. Firstly, a stock solution of AChE was prepared by dissolving enzyme 500 U in 10 mL of tris(hydroxymethyl)aminomethane (TRIS) buffer (50 mM, pH 8). Then, 4–(2-hydroxyethyl)-1-piperazineethanesulfonic acid (HEPES) buffer was used for further dilution of the enzyme solution therefore obtaining the final working solution of AChE. The assay solution consisted of 374 µL of HEPES buffer (50 mM and pH 8.0), a variable volume (10–50 µL) of the compound’s stock solution (1 mg/mL of MeOH), 476 µL of 3 mM bis(3-carboxy-4-nitrophenyl) disulphide (DTNB), 25 µL of AChE stock solution and the necessary amount of methanol to attain the same volume of sample mixture in a 1 mL cuvette. After mixing, samples were left to incubate for 15 min and then 75 µL of 16 mM acetylthiocholine iodide (AChI) solution was added and immediately the reaction was monitored at 405 nm for 5 min. Firstly, enzyme activity was determined by measuring the rate of enzymatic reaction in solution by recording absorbance (with or without enzyme) at 405 nm. To calculate the percent inhibition of AChE, the enzyme activity in the presence of increasing concentrations of the test compound, as well as for a blank reaction (methanol without compounds), were measured at 405 nm.
Where v1is the initial reaction rate in the presence of the inhibitor and v0 is the initial rate of the control reaction. The curves of inhibition were obtained using a plot of percentage of enzymatic inhibition versus inhibitor concentration, and a calibration curve was obtained from which the linear regression parameters were obtained.

SH-SY5Y cells = test: Dose-response screening for non-toxic concentrations, MTT reduction assay; format: cell-based, human; conditions: 10 µM to 40 µM, 25 h
Procedure: The neuroprotective effect of these new multi-target drugs designed for AD was evaluated using SH-SY5Y cells treated with Aβ1-42 peptides or ascorbate/iron. For each compound we performed a dose-response curve to select a non-toxic concentration (Figure 7).
Figure 7. Dose-response screening to select non-toxic concentrations of TAC-BF hybrids. Cells were treated with varying concentration of TAC-BF conjugates (from 10 μM to 40 μM) for 25 h and cell viability was determined using the MTT reduction assay.
SH-SY5Y human neuroblastoma cell line (ATCC-CRL-2266) is grown in Dulbecco’s modified Eagle’s medium (DMEM), and were obtained from Gibco-Invitrogen (Life Technologies Ltd, UK) with 10% heat inactivated foetal calf serum, containing 50 U/mL penicillin and 50 µg/mL streptomycin, under a humidified atmosphere of 95% air- 5% CO2 at 37 °C. Cells were plated at 0.12 × 10^6 cells/mL for cell viability assay. The tested compounds (18, 19, 20, 21, 23 and 24) were dissolved in DMSO at a concentration of 50 mM and aliquots were stored at −20 °C. We performed a dose-response screening (from 10 µM to 40 µM) in order to choose the highest non-toxic concentration. As a result we selected: 20 µM final concentrations for compounds 18, 19, 20 and 23; 20 µM final concentration for compound 19; 35 µM final concentration for compounds 21 and 24. […] The compounds were added to the cell media 1 h before the incubation with Aβ1-42 or L-ascorbic acid/ferrous sulphate. Aβ1-42 or L-ascorbic acid/ferrous sulphate where incubated alone or with the compound for an additional 24 h. Aβ1-42 was prepared as 276.9 µM stock in sterile water and added to the medium at 2.5 µM final concentration. Ferrous sulphate was freshly prepared as 0.36 M stock in water and added to the medium at 500 µM final concentration. L-Ascorbic Acid was freshly prepared as 80 mM stock in water and added to the medium at 5 mM final concentration. Aβ1-42 was purchased from Bachem (Torrance, CA, USA) and ferrous sulphate and L-ascorbic acid from Sigma Chemical Co (St. Louis, MO, USA).
Cell viability was determined by the MTT (3–(4,5-dimethylthiazol-2-yl)-2,5-diphenyltetrazolium bromide) reduction test. In viable cells, the enzyme succinate dehydrogenase metabolises MTT into a formazan that absorbs light at 570 nm. Following the cell treatment protocol, the medium was aspirated and 0.5 mL MTT (0.5 mg/mL) was added to each well. The plate was then incubated at 37 °C for 1 h 30 min protected from light. At the end of the incubation period, the formazan precipitates were solubilised with 0.5 mL of acidic isopropanol (0.04 M HCl/isopropanol). The absorbance was measured at 570 nm[51]. Cell reduction ability was expressed as a percentage of untreated control cells.

[4] = AChE from Electric eel, mean of five independent experiments, read-out: AChE inhibition IC50
[5] = self-mediated Aβ42 aggregation without copper, inhibitor 80 µM, ThT fluorescence

With `Nc1c2c(nc3ccccc13)CCCC2` [TAC, tacrine, reference compound] the “Radical scavenging activity EC50 (DPPH)” value [1] was “weak activity” and the inhibition at 80 µM (Aβ1-42 [2]) was 20%.
`O=C(NCCCCNc1c2c(nc3ccccc13)CCCC2)c1cc2cccc(O)c2o1` [Compound 22, 7-Hydroxy-N-(4-((1,2,3,4-tetrahydroacridin-9-yl)amino)butyl)benzofuran-2-carboxamide] gave an inhibition at 80 µM (Aβ1-42 [3]) of 54%, an IC50 (AChE; [4]) of 980 nM and an inhibition at 80 µM (Aβ1-42 [2]; [5]) of 30.4%.
For `COc1cccc2cc(C(=O)NCCCNc3c4c(nc5ccccc35)CCCC4)oc12` [Compound 17, 7-Methoxy-N-(3-((1,2,3,4-tetrahydroacridin-9-yl)amino)propyl)benzofuran-2-carboxamide], the IC50 (AChE; [4]) was 360 nM and the inhibition at 80 µM (Aβ1-42 [2]; [5]) was 57.5%.
In the case of `COc1cccc2cc(C(=O)NCCCCNc3c4c(nc5ccccc35)CCCC4)oc12` [Compound 18, 7-Methoxy-N-(4-((1,2,3,4-tetrahydroacridin-9-yl)amino)butyl)benzofuran-2-carboxamide], the “highest non-toxic concentration selected from dose-response screening” value (SH-SY5Y cells) is reported as 20 µM, the IC50 (AChE) is reported as 760 nM and the inhibition at 80 µM (Aβ1-42 [2]) is reported as 51.9%.
`O=C(NCCCCNc1c2c(nc3ccccc13)CCCC2)c1cc2ccccc2o1` [Compound 14, N-(4-((1,2,3,4-tetrahydroacridin-9-yl)amino)butyl)benzofuran-2-carboxamide] showed an IC50 (AChE; [4]) of 720 nM and an inhibition at 80 µM (Aβ1-42 [2]; [5]) of 51.5%.
In the case of `O=C(NCCCNc1c2c(nc3cc(Cl)ccc13)CCCC2)c1cc2ccccc2o1` [Compound 15, N-(3-((6-chloro-1,2,3,4-tetrahydroacridin-9-yl)amino)propyl)benzofuran-2-carboxamide], the IC50 (AChE; [4]) is reported as 120 nM and the inhibition at 80 µM (Aβ1-42 [2]; [5]) is reported as 51%.
Work on `O=C(NCCCNc1c2c(nc3ccccc13)CCCC2)c1cc2ccccc2o1` [Compound 13, N-(3-((1,2,3,4-tetrahydroacridin-9-yl)amino)propyl)benzofuran-2-carboxamide] yielded an IC50 (AChE; [4]) of 580 nM and an inhibition at 80 µM (Aβ1-42 [2]; [5]) of 60.6%.
`O=C(NCCCCNc1c2c(nc3cc(Cl)ccc13)CCCC2)c1cc2ccccc2o1` [Compound 16, N-(4-((6-chloro-1,2,3,4-tetrahydroacridin-9-yl)amino)butyl)benzofuran-2-carboxamide] gave an IC50 (AChE; [4]) of 340 nM and an inhibition at 80 µM (Aβ1-42 [2]; [5]) of 43%.
